Laboratory results taken from publication PMC4318582, “Chemotherapy of Second Stage Human African Trypanosomiasis: Comparison between the Parenteral Diamidine DB829 and Its Oral Prodrug DB868 in Vervet Monkeys” (PLoS Neglected Tropical Diseases, 2015).
Values joined by “and” are separate entries in the source; they are usually repeats but may differ in a detail not shown here. Equal entries are not always repeated. “Also recorded” adds a separate entry of the source. Where two headings read alike, the source gives them in different places.

Columns and labels:
[1] = tested on: African trypanosomes; set-up: method as in PMID 18722336, PMID 19620327; settings: oral administration; cited from earlier work
[2] = tested on: T. b. rhodesiense; settings: oral prodrug; cited from earlier work
[3] = tested on: T. b. rhodesiense KETRI 2537; experiment: Efficacy in KETRI vervet monkey model of second stage HAT; assay type: in vivo
Excerpt: The current study used the KETRI vervet monkey model of HAT, a model developed over 30 years ago through the experimental infection of vervet monkeys with T. b. rhodesiense. […] Trypanosomes were identified in peripheral blood first and cerebrospinal fluid (CSF) second, allowing the disease to be classified into an early (haemo-lymphatic) and a late (central nervous system [CNS]) stage, similar to the human disease. […] Monkey trypanosomal infections have been determined to be invariably fatal without therapeutic intervention, a characteristic also widely accepted as true for human sleeping sickness.
Parasitaemia and CSF parasitosis were monitored using established techniques for blood trypanosomes and CSF trypanosomes, respectively.
Due to a regulated freeze on acquisitions of new non-human primates, only six monkeys were available for the IM DB829 study. These animals were divided into three treatment groups, each consisting of one male and one female, to compare dose-responsiveness between consecutive- and alternate-day dosing. Monkeys were treated with 2.5 or 5 mg/kg/day for 5 consecutive days or with 5 mg/kg/day on alternating days for a total of 5 doses (Table 1).
Twelve additional monkeys were available for the oral DB868 efficacy study. These animals were, before infection, divided into three groups, each consisting of two males and two females. DB868 was administered orally to each group at 3, 10 or 20 mg/kg/day for 10 consecutive days (Table 2).
Parasitaemia post-infection was monitored daily, using ear-prick capillary blood, through the completion of DB868 and DB829 treatment. […] At 300 days post-LDD, monkeys were considered cured if they remained normal clinically and parasite-free in the blood and CSF. Pharmacokinetic outcomes were monitored for a minimum of 60 days post-LDD as described previously. […] Monkeys that relapsed, characterized by trypanosome recrudescence in the blood or CSF, were rescue-treated with melarsoprol.

[4] = tested on: T. b. rhodesiense KETRI 2537; settings: cited from earlier work
[5] = tested on: T. b. brucei GVR35; set-up: method as in PMID 19620327; settings: cited from earlier work
[6] = set-up: method as in earlier work; settings: cited from earlier work
[7] = Plasma pharmacokinetics in infected vervet monkeys (HPLC-MS/MS); assay type: in vivo, vervet monkey; settings: for geometric mean plasma concentration (range) of prodrug DB868: within 1 h post-LDD
Excerpt: (§1) Parasitaemia post-infection was monitored daily, using ear-prick capillary blood, through the completion of DB868 and DB829 treatment. Following the last drug dose (LDD), blood and CSF samples were examined for trypanosomes at 1, 4, 7, and 14 days to determine the end of treatment (EoT) response; monkeys which were positive for trypanosomes in either blood or CSF at the end of this 14-day period were classified as treatment failures/not cured while those that were free of trypanosomes were classified as provisionally cured. After the 14-day EoT evaluations, parasitaemia examinations were continued twice weekly to ≥ 300 days post-LDD as described previously. Additionally, physical examinations and haematological assessments were carried out once weekly up to 28 days post-LDD, once every two weeks between 28 and 100 days post-LDD, and monthly thereafter until the end of the study as described previously. At 300 days post-LDD, monkeys were considered cured if they remained normal clinically and parasite-free in the blood and CSF. Pharmacokinetic outcomes were monitored for a minimum of 60 days post-LDD as described previously. To facilitate the collection of blood and CSF for these assessments, the monkeys were anaesthetised with an IM injection of ketamine HCl (10–15 mg/kg) and diazepam (0.5 mg/kg). Monkeys that relapsed, characterized by trypanosome recrudescence in the blood or CSF, were rescue-treated with melarsoprol. Melarsoprol (Mel B), supplied by the World Health Organization as a 3.6% (w/v) solution in propylene glycol, was administered intravenously at 3.6 mg/kg/day for 4 consecutive days.
Plasma samples were processed for quantification of DB868 and DB829 by high performance liquid chromatography-tandem mass spectrometry (HPLC-MS/MS) as described previously. CSF samples were processed in a manner similar to that of plasma samples.
Clinical and haematological data were analysed using Statview for Windows Version 5.0.1 (1995–1998; SAS Institute Inc., Cary, NC, USA). Repeated measures ANOVA, with Fisher’s PLSD post hoc test, was used to test the effect of trypanosome infection on haematologic parameters in comparison with respective baseline values (α = 0.05). In addition, the effects of IM DB829 and oral DB868 on these haematologic parameters in monkeys with confirmed second stage HAT were tested. Pharmacokinetic outcomes were recovered using traditional non-compartmental methods using Phoenix WinNonlin (version 6.2; Pharsight, Mountain View, CA, USA).

[8] = Tolerability of dose regimens in infected vervet monkeys; assay type: in vivo, vervet monkey; settings: all IM DB829 and oral DB868 dose regimens
Excerpt: as §1, with “Monkeys that relapsed, characterized by trypanosome recrudescence in the blood or CSF, were rescue-treated with melarsoprol. Melarsoprol (Mel B), supplied by the World Health Organization as a 3.6% (w/v) solution in propylene glycol, was administered intravenously at 3.6 mg/kg/day for 4 consecutive days.” left out

[9] = tested on: human intestinal cell line (Caco-2); set-up: method as in PMID 12458675, PMID 15294005; settings: cited from earlier work
[10] = all oral DB868 regimens combined
[11] = oral 10 mg/kg × 10 days, monkeys 688M, 690F, 695M, 697F, 10 mg/kg
[12] = oral 20 mg/kg × 10 days, monkeys 573F, 679F, 689M, 696M, 20 mg/kg

In the case of CON=C(N)c1ccc(-c2ccc(-c3ccc(C(N)=NOC)cn3)o2)cc1 [DB844], the “efficacy in murine models of first and second stage HAT” value [1] is listed as “fully curative” and the “cure rate against second stage HAT in non-human primates” value [2] is listed as 3/7.

For CONC(=N)c1ccc(-c2ccc(-c3ccc(C(=N)NOC)cn3)o2)nc1 [DB868, 2,5-bis[5-(N-methoxyamidino)-2-pyridyl]furan], the “Final efficacy assessment at 300 days post-LDD of DB868, Overall Results (combined cure rate)” value [3, 10] was 2/10, the “Provisional efficacy at 100 days post-LDD of DB868, Overall Results” value [3, 10] was 4/10 and the “Provisional efficacy at EoT, Overall Results” value [3, 10] was 8/10. The Time to relapse ([3]; oral 3 mg/kg × 10 days, 28–37 DPI, monkey 687M) was 14 days post-LDD, the Cured/treated ([3]; oral 3 mg/kg × 10 days, 3 mg/kg) was “did not cure any monkey and did not achieve cure in any monkey and 0/2” and the “Provisional efficacy at EoT” value ([3]; oral 3 mg/kg × 10 days, monkeys 670F, 687M) was “Not cured”. The “drug dose after which brief period of aparasitaemia started” value ([3]; oral 3 mg/kg/day × 10 days, 34 DPI) was 7 drug dose, the Cured/treated ([3]; oral 10 mg/kg × 10 days) was 1/4 and the “Time to initial clearance of trypanosomes from body fluids (blood and CSF)” value ([3]; oral 10 mg/kg × 10 days, 28–37 DPI) was 1 days post-LDD. The Time to relapse ([3]; oral 10 mg/kg × 10 days, 28–37 DPI, individual monkeys, 10 mg/kg) was 56 days post-LDD and 28 days post-LDD, the “Provisional efficacy at EoT” value ([3]; oral 10 mg/kg × 10 days, monkeys 688M, 690F, 695M, 697F) was “Cured” and the “Final efficacy assessment at 300 days post-LDD of DB868” value [3, 11] was “R and Cured”. The “Provisional efficacy at 100 days post-LDD of DB868” value [3, 11] was “R and Cured”, the “median (range) time to relapse” value ([3]; oral 10 mg/kg/day × 10 days) was 28 (28–56) days post-LDD and the monkeys relapsed ([3]; oral 10 mg/kg/day × 10 days) was 3/4. For the same molecule, the “day of dosing by which monkeys became blood parasite negative” value ([3]; oral 10 mg/kg/day × 10 days, 34 DPI) was ≤ 7 day of dosing, the Cured/treated ([3]; oral 20 mg/kg × 10 days) was 1/4 and the Time to relapse ([3]; oral 20 mg/kg × 10 days, 28–37 DPI, individual monkeys, 20 mg/kg) was 161 days post-LDD and 133 days post-LDD and 77 days post-LDD. For the same molecule, the “Provisional efficacy at EoT” value ([3]; oral 20 mg/kg × 10 days, monkeys 573F, 679F, 689M, 696M) was “Cured”, the “Final efficacy assessment at 300 days post-LDD of DB868” value [3, 12] was “R and Cured” and the “Provisional efficacy at 100 days post-LDD of DB868” value [3, 12] was “R and Cured”. For the same molecule, the monkeys relapsed ([3]; oral 20 mg/kg/day × 10 days) was 3/4, the “median (range) time to relapse” value ([3]; oral 20 mg/kg/day × 10 days, 20 mg/kg/day) was 133 (77–161) days post-LDD and 133 days post-LDD and the “day of treatment by which monkeys became aparasitaemic (blood)” value ([3]; oral 20 mg/kg/day × 10 days, 34 DPI) was ≤ 7 day of treatment. For the same molecule, the “efficacy against first stage HAT in monkeys” value ([4]; oral) was “highly active; also recorded: fully curative”, the “tolerability in monkeys, first stage HAT study” value ([4]; oral) was “well-tolerated” and the “efficacy in the murine model of second stage HAT” value [5] was “fully curative”. The tolerability in rats [6] was “better tolerated than pafuramidine”, the “decline of prodrug DB868 plasma concentrations” value ([7]; oral DB868, all monkeys, post-LDD) was “undetectable after 8 h” and the “geometric mean plasma concentration (range) of prodrug DB868” value (from here on “geometric mean plasma concentration”) ([7]; oral DB868 3 mg/kg/day) was 120 (100–150) nmol/L. For the same molecule, the “geometric mean plasma concentration” value ([7]; oral DB868 10 mg/kg/day) was 750 (420–1500) nmol/L, the “geometric mean plasma concentration” value ([7]; oral DB868 20 mg/kg/day) was 810 (370–1300) nmol/L and the “tolerability of dose regimens” value [8] was “well tolerated”.

With Nc1nc(N)nc(Nc2ccc([As]3SCC(CO)S3)cc2)n1 (stereo not drawn) [melarsoprol, reference compound] the “rescue treatment of monkeys that relapsed after DB868” value ([3]; melarsoprol intravenously 3.6 mg/kg/day for 4 consecutive days, 3.6 mg/kg/day) was “successfully rescue-treated and 5/6”.

In the case of CONC(=N)c1ccc(-c2ccc(-c3ccc(C(=N)NOC)cc3)o2)cc1 [pafuramidine, 2,5-bis (4-amidinophenyl)-furan-bis-O-methlylamidoxime], the “efficacy in murine models of first and second stage HAT” value [1] is listed as “fully curative”, the “efficacy against first stage HAT in monkeys” value ([4]; oral administration) is listed as “fully curative” and the “absorptive permeability compared with the active diamidine furamidine (DB75)” value [9] is listed as “improved absorptive permeability”. The “cure rate against second stage HAT in non-human primates” value [2] was 0/3.

In the case of N=C(N)c1ccc(OCCCCCOc2ccc(C(=N)N)cc2)cc1 [pentamidine, reference compound], the “cure rate when treatment initiation was delayed to 14 days post-infection” value ([4]; IM, monkeys, T. b. rhodesiense KETRI 2537, ref unpublished data, TRC-KARI) is given as 0/3 and the “cure rate in first stage disease” value ([4]; IM, monkeys) is given as 2/3.
